Laboratory results from PubChem BioAssay (NCI).
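48-hour exposure; five concentrations; linearly interpolated endpoints. TGI denotes the concentration required for complete inhibition of growth.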

Tests used:
Experiment in all cases: NCI tumour cell line growth inhibition, 48 h
MDA-N = system: MDA-N
T-47D breast = system: T-47D breast
A549 NSCLC = system: A549 NSCLC
ACHN renal = system: ACHN renal
DU-145 prostate = system: DU-145 prostate
MALME-3M melanoma = system: MALME-3M melanoma
RPMI-8226 leukemia = system: RPMI-8226 leukemia
HCT-15 colon = system: HCT-15 colon
PC-3 prostate = system: PC-3 prostate
HOP-62 NSCLC = system: HOP-62 NSCLC
NCI/ADR-RES ovarian = system: NCI/ADR-RES ovarian
NCI-H522 lung = system: NCI-H522 lung
KM12 colon = system: KM12 colon
MDA-MB-435 = system: MDA-MB-435
HL-60(TB) leukemia = system: HL-60(TB) leukemia
A498 renal = system: A498 renal
HCT-116 colon = system: HCT-116 colon
EKVX NSCLC = system: EKVX NSCLC
NCI-H460 lung = system: NCI-H460 lung
SW-620 colon = system: SW-620 colon
MDA-MB-231 breast = system: MDA-MB-231 breast
SK-OV-3 ovarian = system: SK-OV-3 ovarian
HCC-2998 colon = system: HCC-2998 colon
OVCAR-8 ovarian = system: OVCAR-8 ovarian
MOLT-4 leukemia = system: MOLT-4 leukemia
OVCAR-3 ovarian = system: OVCAR-3 ovarian
BT-549 breast = system: BT-549 breast
OVCAR-5 ovarian = system: OVCAR-5 ovarian
U251 CNS = system: U251 CNS
M14 melanoma = system: M14 melanoma
SNB-19 CNS = system: SNB-19 CNS
K-562 leukemia = system: K-562 leukemia
SF-295 CNS = system: SF-295 CNS
UO-31 renal = system: UO-31 renal
HOP-92 NSCLC = system: HOP-92 NSCLC
NCI-H23 lung = system: NCI-H23 lung
SF-268 CNS = system: SF-268 CNS
HT29 colon = system: HT29 colon
UACC-62 melanoma = system: UACC-62 melanoma
OVCAR-4 ovarian = system: OVCAR-4 ovarian
CCRF-CEM leukemia = system: CCRF-CEM leukemia
SK-MEL-5 melanoma = system: SK-MEL-5 melanoma
SF-539 CNS = system: SF-539 CNS
SNB-75 CNS = system: SNB-75 CNS
COLO 205 colon = system: COLO 205 colon
CAKI-1 renal = system: CAKI-1 renal
UACC-257 melanoma = system: UACC-257 melanoma
MCF7 breast = system: MCF7 breast
SK-MEL-2 melanoma = system: SK-MEL-2 melanoma
786-0 renal = system: 786-0 renal
HS 578T breast = system: HS 578T breast
TK-10 renal = system: TK-10 renal
LOX IMVI melanoma = system: LOX IMVI melanoma
NCI-H226 lung = system: NCI-H226 lung
SK-MEL-28 melanoma = system: SK-MEL-28 melanoma
SN12C renal = system: SN12C renal
IGROV1 ovarian = system: IGROV1 ovarian
RXF 393 renal = system: RXF 393 renal

Measured: TGI

NC(Cc1ccccc1)C(=O)O (configuration not stated)
> 100 µM: all assays above

Cc1cn(C2CC(O)C(Cn3cc(Cn4nc(Br)c(=O)[nH]c4=O)nn3)O2)c(=O)[nH]c1=O (configuration not stated)
14.3 µM: CCRF-CEM leukemia
not listed: NCI-H522 lung | HL-60(TB) leukemia | NCI-H460 lung | K-562 leukemia | HOP-92 NSCLC | HT29 colon | 786-0 renal | LOX IMVI melanoma | IGROV1 ovarian
> 100 µM: all other assays above
